Test results from PMC11968843, “Sulphostin-inspired N-phosphonopiperidones as selective covalent DPP8 and DPP9 inhibitors” (Nature Communications, 2025).
Values joined by “and” are separate entries in the source; they are usually repeats but may differ in a detail not shown here. Equal entries are not always repeated. Where two headings read alike, the source gives them in different places.

What was measured:
[1] = molecular target: T1, DPP8 (Homo sapiens, UniProt Q6V1X1); assay: Time-dependent DPP8 inhibition kinetics (kobs, KI, kinact, kapp); type: biochemical
T1 construct: purchased Proteros Biostructures GmbH, Germany
T1 sequence (Q6V1X1 whole entry): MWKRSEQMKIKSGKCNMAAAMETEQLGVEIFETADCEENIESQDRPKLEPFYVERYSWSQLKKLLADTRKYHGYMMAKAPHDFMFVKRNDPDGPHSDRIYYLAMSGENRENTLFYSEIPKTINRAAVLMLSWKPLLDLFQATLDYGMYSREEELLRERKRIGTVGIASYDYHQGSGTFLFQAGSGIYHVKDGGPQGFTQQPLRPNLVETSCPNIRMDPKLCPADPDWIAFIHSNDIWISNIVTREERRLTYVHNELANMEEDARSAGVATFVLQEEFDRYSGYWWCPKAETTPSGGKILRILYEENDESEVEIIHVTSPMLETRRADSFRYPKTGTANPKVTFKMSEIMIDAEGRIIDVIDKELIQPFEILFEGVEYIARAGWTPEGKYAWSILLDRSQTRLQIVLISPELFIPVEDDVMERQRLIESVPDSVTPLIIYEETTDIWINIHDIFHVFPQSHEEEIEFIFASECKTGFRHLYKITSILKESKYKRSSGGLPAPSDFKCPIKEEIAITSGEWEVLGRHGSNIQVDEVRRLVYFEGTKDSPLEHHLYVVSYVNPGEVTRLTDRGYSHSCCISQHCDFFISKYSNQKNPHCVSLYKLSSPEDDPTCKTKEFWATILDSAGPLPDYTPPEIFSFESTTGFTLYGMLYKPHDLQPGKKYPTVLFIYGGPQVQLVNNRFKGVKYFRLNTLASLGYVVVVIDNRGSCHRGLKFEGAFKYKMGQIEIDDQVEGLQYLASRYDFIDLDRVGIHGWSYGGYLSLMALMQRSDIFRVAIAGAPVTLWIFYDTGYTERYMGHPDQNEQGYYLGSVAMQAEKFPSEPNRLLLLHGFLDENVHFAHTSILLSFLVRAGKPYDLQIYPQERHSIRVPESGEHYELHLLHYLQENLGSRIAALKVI
Description: (§1) To calculate the reaction rate of covalent bond formation between DPP proteins and inhibitor, kinact, KI and kapp was determined as previously described[30],[51]. Therefore, 250 µM GP-AMC was added simultaneously with a serial dilution of the inhibitor to 10 nM enzyme. Enzyme activity was measured for a maximum of 120 min at 30 °C, and fluorescence intensities were then plotted against time. Data was fitted to the following equation: Y=(vi/kobs)*(1−exp(−kobs*X)) using Graph-Pad Prism v10.2.3. The obtained pseudo-first-order rate constant was used to determine the maximum enzyme inhibition rate (kinact) and binding affinity (KI) by fitting the plot of kobs against inhibitor concentration to the following equation: Y=kinact/1+(KI/[I]) . The efficiency of covalent bond formation (kapp) was calculated by the ratio of kinact/KI. All measurements were performed in triplicates and error bars represent standard errors of the fit.

[2] = test system: serine hydrolases (≡FP target proteins) in HEK293 cell lysates; assay: Competitive ABPP with fluorophosphonate-alkyne (≡FP) in HEK293 cell lysates; type: binding, H. sapiens; settings: 50 µM pre-incubation 2 h, 2 µM ≡FP
[3] = molecular target: T2, DPP9 (Homo sapiens, UniProt Q86TI2); assay: Native MS of DPP9 dimer after incubation with inhibitor; settings: 50 µM, 90 min
Target sequence in this assay (Q86TI2 20-863): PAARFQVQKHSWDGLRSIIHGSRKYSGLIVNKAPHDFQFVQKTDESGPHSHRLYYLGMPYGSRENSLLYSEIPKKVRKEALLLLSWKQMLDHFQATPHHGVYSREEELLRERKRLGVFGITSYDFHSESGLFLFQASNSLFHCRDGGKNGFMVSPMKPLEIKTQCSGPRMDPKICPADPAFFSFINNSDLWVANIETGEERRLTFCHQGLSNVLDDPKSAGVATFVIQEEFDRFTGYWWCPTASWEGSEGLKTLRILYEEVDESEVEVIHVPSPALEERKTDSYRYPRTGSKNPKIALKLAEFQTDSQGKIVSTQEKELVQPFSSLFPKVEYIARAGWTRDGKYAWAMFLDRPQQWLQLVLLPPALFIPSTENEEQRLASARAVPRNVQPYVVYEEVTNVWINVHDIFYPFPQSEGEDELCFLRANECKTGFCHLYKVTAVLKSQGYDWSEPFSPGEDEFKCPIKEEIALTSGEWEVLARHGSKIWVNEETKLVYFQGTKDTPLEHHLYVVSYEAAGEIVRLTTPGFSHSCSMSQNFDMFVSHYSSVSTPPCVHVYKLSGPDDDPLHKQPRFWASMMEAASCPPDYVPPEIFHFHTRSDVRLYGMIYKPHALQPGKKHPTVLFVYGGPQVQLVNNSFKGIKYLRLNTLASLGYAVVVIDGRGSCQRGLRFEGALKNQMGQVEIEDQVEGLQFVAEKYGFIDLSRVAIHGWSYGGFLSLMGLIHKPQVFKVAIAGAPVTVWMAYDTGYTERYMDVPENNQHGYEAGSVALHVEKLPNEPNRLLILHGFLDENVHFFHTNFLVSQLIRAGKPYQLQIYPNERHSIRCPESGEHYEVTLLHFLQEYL
Description: For this purpose, a rebuffering procedure using 10 kDa molecular weight cut-off spin-filter columns (Merck Millipore, USA) was applied for five cycles[58]. The resulting protein concentration was determined using microvolume spectroscopy (DS-11+, DeNovix, USA) and adjusted to 5 µM with 200 mM NH4OAc. […] A total number of 1000 MS spectra were recorded in positive EMR mode on an Exactive Plus EMR Orbitrap mass spectrometer (Thermo Fisher Scientific, USA) calibrated with CsI (2 mg mL^-1; Thermo Fisher Scientific, USA).
UniDec software (version 6.0.4) was used for mass deconvolution[59]. For this purpose, the default settings were used within an m/z range of 6500 to 9500, with the exception of a higher deconvolution resolution (sample mass every 1 Da), a narrower peak detection window (peak detection range of 80 Da) and a total peak normalization. GraphPad Prism v8.0.1 was used for data visualization.

[4] = molecular target: T2, DPP9; assay: Time-dependent DPP9 inhibition kinetics (kobs, KI, kinact, kapp); type: biochemical; parameters: purchased Proteros Biostructures GmbH, Germany
Description: as §1
Target sequence in this assay (Q86TI2 whole entry): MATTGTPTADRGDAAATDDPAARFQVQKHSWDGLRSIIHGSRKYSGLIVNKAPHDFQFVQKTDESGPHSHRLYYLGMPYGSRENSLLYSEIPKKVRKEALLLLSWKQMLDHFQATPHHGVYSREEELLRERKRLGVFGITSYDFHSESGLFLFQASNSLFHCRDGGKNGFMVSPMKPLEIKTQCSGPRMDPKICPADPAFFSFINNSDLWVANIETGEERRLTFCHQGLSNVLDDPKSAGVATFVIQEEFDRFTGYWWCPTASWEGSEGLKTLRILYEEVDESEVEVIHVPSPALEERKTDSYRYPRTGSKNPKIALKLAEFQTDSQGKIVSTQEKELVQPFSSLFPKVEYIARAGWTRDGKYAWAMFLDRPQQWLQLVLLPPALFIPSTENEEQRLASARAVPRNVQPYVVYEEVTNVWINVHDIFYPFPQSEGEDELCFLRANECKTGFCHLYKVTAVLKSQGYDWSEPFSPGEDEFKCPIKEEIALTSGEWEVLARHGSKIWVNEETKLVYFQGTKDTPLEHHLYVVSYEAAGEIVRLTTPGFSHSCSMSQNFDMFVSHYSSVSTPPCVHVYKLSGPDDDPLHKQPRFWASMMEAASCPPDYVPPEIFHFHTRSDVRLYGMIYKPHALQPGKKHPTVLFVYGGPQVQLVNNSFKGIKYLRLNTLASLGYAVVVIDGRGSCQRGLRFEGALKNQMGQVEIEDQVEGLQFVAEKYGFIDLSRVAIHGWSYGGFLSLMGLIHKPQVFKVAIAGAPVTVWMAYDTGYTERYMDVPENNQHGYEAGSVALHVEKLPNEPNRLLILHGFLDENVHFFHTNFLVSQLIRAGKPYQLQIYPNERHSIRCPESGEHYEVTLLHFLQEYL

[5] = molecular target: T1, DPP8; assay: biochemical; type: biochemical
Description: (§2) Enzyme activity of DPP4, DPP8, DPP9 (Proteros Biostructures GmbH, Germany) and PREP (Sigma Aldrich, USA) was determined by measuring the initial velocity of AMC release from the fluorogenic substrate GP-AMC (Sigma Aldrich, USA) using a Tecan Spark® 10 M multimode microplate reader (Tecan Group Ltd., Switzerland) in activity buffer (20 mM HEPES/KOH pH 7.3, 110 mM potassium acetate, 2 mM Mg acetate, 0.5 mM EGTA, 0.02% Tween 20, supplemented with 1 mM DTT) and a final volume of 20 μL for maximal 60 min at 30 °C. Prior to activity measurement, 10 nM enzyme was incubated for 45 min at 30 °C and gentle shaking with the inhibitor compounds in concentrations ranging from 0 to 100 μM. The compounds were dissolved in DMSO and diluted in activity buffer (final DMSO concentration: 1%). […] IC50 values were calculated using Graph-Pad Prism v10.2.3 using the equation: [Inhibitor] vs. response—Variable slope (four parameters). All measurements were performed in triplicates and error bars represent standard errors of the fit.

[6] = molecular target: T2, DPP9; assay: biochemical; type: biochemical; parameters: purchased Proteros Biostructures GmbH, Germany
Description: as §2
Target sequence in this assay (Q86TI2 whole entry): as above

[7] = molecular target: T3, DPP4 (Homo sapiens, UniProt P27487); assay: biochemical; type: biochemical
T3 construct: purchased Proteros Biostructures GmbH, Germany
T3 sequence (P27487 whole entry): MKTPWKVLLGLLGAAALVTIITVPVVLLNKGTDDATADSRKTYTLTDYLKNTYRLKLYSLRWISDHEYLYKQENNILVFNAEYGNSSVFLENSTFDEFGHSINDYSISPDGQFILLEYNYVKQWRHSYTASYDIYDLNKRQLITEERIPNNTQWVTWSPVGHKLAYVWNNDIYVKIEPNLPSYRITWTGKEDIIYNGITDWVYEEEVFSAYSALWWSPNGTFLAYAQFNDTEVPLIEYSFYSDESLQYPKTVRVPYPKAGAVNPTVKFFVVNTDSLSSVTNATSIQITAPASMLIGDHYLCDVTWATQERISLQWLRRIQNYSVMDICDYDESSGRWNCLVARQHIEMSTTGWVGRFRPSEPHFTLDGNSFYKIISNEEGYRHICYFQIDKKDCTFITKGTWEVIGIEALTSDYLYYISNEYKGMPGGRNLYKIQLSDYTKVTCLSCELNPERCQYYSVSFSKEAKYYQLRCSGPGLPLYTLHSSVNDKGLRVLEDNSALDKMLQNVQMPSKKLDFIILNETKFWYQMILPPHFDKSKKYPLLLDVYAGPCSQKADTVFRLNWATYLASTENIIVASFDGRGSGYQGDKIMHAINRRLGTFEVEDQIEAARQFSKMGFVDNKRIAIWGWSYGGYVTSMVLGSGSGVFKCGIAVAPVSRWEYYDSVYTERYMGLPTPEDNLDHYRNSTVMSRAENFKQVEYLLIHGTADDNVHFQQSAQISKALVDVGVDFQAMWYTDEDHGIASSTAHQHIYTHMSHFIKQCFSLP
Description: as §2

SMILES: N[C@H]1CCCN([P@@](N)(=O)NS(=O)(=O)O)C1=O [Sulphostin]
- kobs DPP8 ([1]; c 1.5625 µM): 3.383e-05 s⁻¹
- kobs DPP8 ([1]; c 6.25 µM): 4.011e-05 s⁻¹
- kobs DPP8 ([1]; c 25 µM): 0.0001308 s⁻¹
- kobs DPP8 ([1]; c 50 µM): 0.0001589 s⁻¹
- kapp DPP8 ([1]; ratio kinact/KI): 11 M⁻¹ s⁻¹
- KI (inactivation) ([1]; read-out: KI [M] best fit DPP8, source data): 2.11e-05 M
- competition of ≡FP labeling [2]: significantly competed only the labeling of DPP8/9
- Difference [Da] between doubly and singly modified DPP9 dimer [3]: 156 Da
- Intensity [%] of DPP9 dimer with one modification [3]: 44.37%
- Intensity [%] of DPP9 dimer with two modifications [3]: 32.64%
- Intensity [%] of unmodified DPP9 dimer [3]: 22.99%
- increase of DPP9 molecular weight, both active sites of the dimer modified [3]: 311 Da
- increase of DPP9 molecular weight, first adduct (one active site of the dimer modified) [3]: 155 Da
- kobs DPP9 ([4]; c 0.15625 µM): 6.239e-05 s⁻¹
- kobs DPP9 ([4]; c 5 µM): 0.0002112 s⁻¹
- kapp DPP9 ([4]; ratio kinact/KI): 317 M⁻¹ s⁻¹
- KI (inactivation) ([4]; read-out: KI [M] best fit DPP9, source data): 7.33e-07 M
- IC50 [5]: 6.93 ± 0.62 µM
- remaining activity at 1.5625 µM ([5]; read-out: DPP8 activity [%], c 1562.5 nM): 93.5%
- remaining activity at 3.125 µM ([5]; read-out: DPP8 activity [%], c 3125 nM): 73.6%
- remaining activity at 6.25 µM ([5]; read-out: DPP8 activity [%], c 6250 nM): 47.7%
- remaining activity at 25 µM ([5]; read-out: DPP8 activity [%], c 25000 nM): 11.8%
- remaining activity at 50 µM ([5]; read-out: DPP8 activity [%], c 50000 nM): 5.62%
- remaining activity at 100 µM ([5]; read-out: DPP8 activity [%], c 100000 nM): 3.57%
- IC50 [6]: 1.39 ± 0.108 µM
- remaining activity at 0.15625 µM ([6]; read-out: DPP9 activity [%], c 156.25 nM): 93.2%
- remaining activity at 0.3125 µM ([6]; read-out: DPP9 activity [%], c 312.5 nM): 87.7%
- remaining activity at 2.5 µM ([6]; read-out: DPP9 activity [%], c 2500 nM): 28.5%
- remaining activity at 5 µM ([6]; read-out: DPP9 activity [%], c 5000 nM): 16.7%
- remaining activity at 10 µM ([6]; read-out: DPP9 activity [%], c 10000 nM): 10.8%
- remaining activity at 25 µM ([6]; read-out: DPP9 activity [%], c 25000 nM): 5%
- remaining activity at 50 µM ([6]; read-out: DPP9 activity [%], c 50000 nM): 3.52%
- remaining activity at 100 µM ([6]; read-out: DPP9 activity [%], c 100000 nM): 2.34%

SMILES: CC(C)[C@H](N)C(=O)N1CCC[C@H]1B(O)O [VbP, Val-boroPro, reference compound]
- DPP4 activity [%] ([7]; c 1.6 nM): 67.4885% and 113.658% and 85.6002%
- DPP4 activity [%] ([7]; c 3.1 nM): 70.6772% and 79.559% and 93.9074%
- DPP4 activity [%] ([7]; c 6.3 nM): 51.4161% and 71.0555% and 74.1702%
- DPP4 activity [%] ([7]; c 25 nM): 4.534% and 5.3397% and 4.7469%
- DPP4 activity [%] ([7]; c 50 nM): 3.474% and 3.265% and 3.283%
- DPP4 activity [%] ([7]; c 100 nM): 2.2772% and 2.383% and 2.483%

SMILES: NC1CCCN(P(N)(=O)NS(=O)(=O)O)C1=O (centres unmarked) [WTC0260B]
- IC50 ([5]; GP-AMC 250 µM, 10 nM enzyme, 45 min pre-incubation at 30 °C, read-out: IC50 DPP8): 27.9 µM
- IC50 ([6]; GP-AMC 250 µM, 10 nM enzyme, 45 min pre-incubation at 30 °C, read-out: IC50 DPP9): 6.26 µM
